Read-outs that look alike come from different tables or passages of the source.
Assays:
[1] = test system: ovarian carcinoma cells (Caov-3 cells); experiment: TUNEL assay apoptosis, Caov-3; format: cell-based, human; details: Caov-3, IC50 values, 24 and 48 hours, P<0.05 or P<0.01 vs control
Excerpt: Apoptotic cells were quantified manually after TUNEL Assay. Data shown are mean±SD from duplicate samples. A single dagger denotes a P of <0.05 when compared with control; a double dagger denotes a P of <0.01 when compared with control as performed by One-Way ANOVA;

HeLa cancer cells [2] = experiment: Confocal microscopy with AO/PI stain, HeLa; format: cell-based, human; details: 48 hours, laser scanning confocal microscopy
Experimental: The plates were removed from the incubator after 24 and 48 hours of incubation period. The medium containing cells was transferred into labeled Eppendorf tubes (of each treated samples) placed in ice. The remaining cells in the wells were trypsinised until all cells were detached from the surfaces of each well. The medium containing cells in the Eppendorf tube was then transferred into the well of the tissue culture plate (of similar sample) to neutralise the trypsin. The medium in the wells was later transferred back into the Eppendorf tube (of similar sample) and centrifuged at 3000 rpm for 5 minutes, 4° C. Supernatant was discarded and 1 mL of 70% of cold alcohol was added. The pellet was re-suspended and placed in ice for 15 minutes for fixation. The samples were then centrifuged again at 3000 rpm for 5 minutes, 4° C. The supernatants containing the alcohol were discarded. The pellet was then re-suspended in 1 mL of phosphate buffer saline (PBS) and placed in ice for 10 minutes. The samples were centrifuged again, re-suspended in 1 mL of PBS and placed in ice for 10 minutes. This procedure was repeated again before discarding the supernatant.
The pellet containing cells was re-suspended with 15 μl of 10 μg/mL AO/PI mixture. Approximately 10 μl of the cell suspension was placed on a glass slide, and anti-fading agents were added onto the cells. […]

[3] = test system: cervical cancer cells (HeLa cells); experiment: TUNEL assay apoptosis, HeLa; format: cell-based, human; details: IC50 values, 24 and 48 hours, P<0.01 vs control
Excerpt: Apoptosis was quantified manually after TUNEL Assay. Data shown are mean±SD from duplicate samples. A double dagger denotes a P of <0.01 when compared with control as performed by One-Way ANOVA;

Caov-3 cancer cells = experiment: Morphological study under normal inverted microscope, Caov-3; format: cell-based, human; details: Caov-3, treated at IC50 value, 24, 48 and 72 hours
Experimental: (§1) Treated cancer cells of HeLa and Caov-3 in 96-well plates were observed under normal inverted microscope following 24, 48 and 72 hours of incubation. Apoptotic features of treated cells were examined and compared concurrently to untreated cells. The cells were observed under inverted microscope at magnification 20×10.

[4] = test system: induced cervical cancer in female balb/c mice; experiment: DES-induced cervical cancer in female balb/c mice, cervical histology (H&E); format: in vivo; details: intra peritoneal, 4 dosages on alternate days, normal saline group CIN III
Experimental: 1 male mouse was cohabitate with 3 female mice for 48 hours prior to experiment to stimulate the ovulation of the female mice. After 48 hours, 1 male mouse was cohabitate with 1 female mouse. The next morning, the female mice were checked for a vaginal plug. The detection of vaginal plug at the vagina of the female mice were considered as the first day of pregnancy and gestation day (G=0). Once the female mouse was pregnant the corresponding male mouse was separated from the cage. Only one pregnant female mouse was placed in each cage to reduce the stress among the mice and also to reduce the chances of cannibalization of offspring by the mothers. The pregnant mice were given subcutaneous injection of 67 μg/kg body weight diethylstilbestrol (DES) dissolved in sesame oil (refer to appendix for DES preparation) from gestation day (13 to 18). Since the reproductive tract is developing during this time, so giving the DES injection too early may cause stillbirth. The mice gave birth approximately at gestation day (19 to 22). The offspring were weaned at 22 days of age. 1 female offspring was subjected for the confirmation of cervical dysplasia at 41 days of age. The other offspring were subjected for the treatment with cisplatin, zerumbone and normal saline.
All female offspring exposed to DES in uteri were pooled together and were divided into 4 groups where each group consists of 3 mice. […]

HeLa cancer cells [5] = experiment: Morphological study under normal inverted microscope, HeLa; format: cell-based, human; details: treated at IC50 value, 24, 48 and 72 hours
Experimental: as §1

serum IL-6 = experiment: Serum IL-6 ELISA in mice with induced cervical cancer; format: in vivo; details: for Serum IL-6 levels vs normal saline treated mice: mice with induced cervical cancer, P<0.01 One-Way ANOVA
Experimental: All female offspring exposed to DES in uteri were pooled together and were divided into 4 groups where each group consists of 3 mice. The 5th group consists of 3 mice which was non-exposed to DES. The mice were given treatment starting from 46 days of age to 52 days of age. The treatment was given every alternate day (day 46, 48, 50, 52) which consist of 4 dosages. The treatment was given through intra peritoneal injection. The group 1 mice were treated with 0.9% of Normal Saline and this group acts as a positive control group. The group 2 mice were given 8 mg/kg of Zerumbone while the group 3 mice were given 16 mg/kg of Zerumbone. […] Finally no treatment was given to the mice in group 5 as they act as a negative control (normal mice) for the studies. Following treatment, all the mice were sacrificed at 54 days of age. The blood sample was collected through heart punctured method into a plain tube and was centrifuged at 3000 rpm for 15 minutes. The supernatant (serum) was collected into an eppendorf tube and was immediately stored in ice (0° C.—temporary storage). Once serum from all the samples was collected, the serum was stored at −20° C. Then the mice were dissected. The reproductive organ of the mice were collected and washed with 0.9% normal saline. The washed organ was soaked in 10% formalin and stored at room temperature.
The IL-6 serum levels in normal mice were used as negative control.

[6] = test system: human cervical cancer cells, HeLa; experiment: Micro Tetrazolium (MTT) cytotoxicity assay on HeLa
Experimental: HeLa and Caov-3 cell lines were maintained in RPMI 1640 and DMEM high glucose respectively, supplemented with 10% FCS, 1% penicillin and 1% streptomycin. Cells were allowed to proliferate as monolayer cultures in 25 cm^2 and 75 cm^2 tissues culture flasks, in a humidified atmosphere containing 5% CO2 at 37° C.
A haemacytometer was used to determine the concentration of cells in the flask. Confluent cells were trypsinised in order to detach cells from surface of the flask. 10 mL of fresh medium was added into the flask and the cells were suspended thoroughly. 10 μl of medium from the flask was then transferred into a haemacytometer with cover slip. The counting was done under an inverted microscope and facilitated by manual counter usage. The cell density (for an example 1×10^5 cells/mL) was calculated. Using a multi-channel pipette, 100 μl of cell culture solution was transferred into each well of a 96-well microtiter plate. For a 6 well microtiter plate, 2 ml of the cell culture solution was pipetted instead. The plate was incubated overnight at 37° C. in 5% CO2.
The concentrations of zerumbone in each experiment varied according to the optimization of the experiment conducted. The controls or untreated cells received only medium without any treatment of either compounds. Treated cells were then incubated at 37° C. in 5% CO2.
This assay is based on the metabolic reduction of soluble MTT by mitochondrial enzyme activity of viable cancer cells, into an insoluble coloured formazan product, which can be measured spectrophotometrically after dissolution in dimethyl sulfoxide (DMSO) (Carmichale et al., 1987). The MTT assay was conducted according to the methods of Kumi-Diaka et at (1998) with minor modifications. The concentration of MTT solution used was 5 mg/mL. The MTT solution was prepared by dissolving 250 mg of MTT powder in 50 mL of phosphate buffer saline (PBS). A 0.2 micron syringe filter was used to filter the dissolved MTT. The filtered MTT solution was transferred into a sterile 50 mL centrifuge tube and covered with aluminum foil. This solution was stored in 4° C. and is ready to be used. The MTT assay was carried out as follows:
96-well microtiter plates containing cell culture solution were removed from the incubator after 72 hours incubation. 20 μl of 5 mg/mL MTT solution was added into each well including control wells. The plates were then wrapped with aluminium foil and incubated further for 4 hours at 37° C. in 5% CO2. After incubation, excess MTT reagent was aspirated and 100 μl of DMSO was added to dissolve the remaining purple colour formazan crystals. The plates were gently mixed on a plate shaker for approximately 4 minutes. The absorbance of the formazan solution was determined at 450 nm using a microplate reader.

Coa3 cancer cells = experiment: Cell cycle study by flow cytometry, Caov-3; format: cell-based, human; details: Coa3 (Caov-3) cancer cells
HeLa cells = experiment: Cell cycle study by flow cytometry, HeLa; format: cell-based, human; details: 24 hours, zerumbone 0 to 45 μM
Experimental: Cells were plated in 25 cm^2 tissue culture flasks at concentrations of 0.5×10^5 cells/mL. After an overnight incubation, the cells were cultured in the presence of zerumbone at concentrations as indicated above for 24 hours. Cells were harvested using trypsin-EDTA before centrifuging at 3000 rpm for 5 minutes. The cells pellet was then re-suspended in 2 mL of phosphate buffer saline (PBS). The re-suspended cells were centrifuged at 3000 rpm for 5 minutes and the resulting cells pellet was re-suspended again in 1 mL of cold PBS. The cells were fixed by the addition of 4 mL of cold absolute ethanol (kept in −20° C. prior to use). The fixed cells were stored in −20° C. overnight before resuming the staining procedure.

N.N.[Cl][Pt][Cl] [cisplatin, reference compound]
Apoptosis, apoptotic cells quantified after TUNEL Assay [1]: induced apoptosis
Morphological changes after AO/PI staining (HeLa cancer cells [2]): blebbing of the cell membrane, nuclear condensation with margination and nuclear damage
Apoptosis quantified after TUNEL Assay [3]: induced apoptosis
Morphological changes / cell growth vs untreated control (Caov-3 cancer cells): Prominent growth retardation
Cervical tissue dysplasia grade (CIN) ([4]; 10 mg/kg cisplatin): mild dysplastic changes (CIN I)
Morphological changes / cell growth vs untreated control (HeLa cancer cells [5]): Prominent growth retardation
Serum IL-6 levels vs normal mice (negative control) (serum IL-6; 10 mg/kg cisplatin): almost near to the serum level of normal mice
Serum IL-6 levels vs normal saline treated mice (serum IL-6): lower
IC50 value, growth proliferation of HeLa ([6]; MTT, 72-hours post-treatment): 1.6 µg/mL
IC50 ([6]; read-out: IC50 value (±S.E.M), growth proliferation of HeLa, MTT, 72-hours post-treatment): 7.5 µM

C/C1=C\CC(C)(C)/C=C/C(=O)/C(C)=C/CC1 [zerumbone]
Cell cycle progression (G2/M, G1, S phase) (Coa3 cancer cells): increase in the number of HeLa cancer cells and Coa3 cancer cells in the G2/M phase and a decrease in the G1 phase and S phase
Apoptosis, apoptotic cells quantified after TUNEL Assay [1]: induced apoptosis
Morphological changes after AO/PI staining (HeLa cancer cells [2]): blebbing of the cell membrane, nuclear condensation with margination and nuclear damage
Apoptosis quantified after TUNEL Assay [3]: induced apoptosis
Morphological changes / cell growth vs untreated control (Caov-3 cancer cells): Prominent growth retardation
Cervical tissue dysplasia grade (CIN) ([4]; 16 mg/kg zerumbone): mild dysplastic changes (CIN I)
Morphological changes / cell growth vs untreated control (HeLa cancer cells [5]): Prominent growth retardation
Cell cycle progression (G2/M, G1, S phase) (HeLa cells): increase in the number of HeLa cancer cells and Coa3 cancer cells in the G2/M phase and a decrease in the G1 phase and S phase
Serum IL-6 levels vs normal mice (negative control) (serum IL-6; 16 mg/kg zerumbone): almost near to the serum level of normal mice
Serum IL-6 levels vs normal saline treated mice (serum IL-6): lower
IC50 ([6]; Homo sapiens, 72 h, read-out: IC50 value (±S.E.M), growth proliferation of HeLa): 11.3 µM
IC50 ([6]; Homo sapiens, 72 h, read-out: IC50 value, growth proliferation of HeLa): 2.5 µg/mL
